In PubChem BioAssay AID504479 (NMMLSC, 2011) one finds GFP ratio vs DMSO data, which are given here for 16 compounds.

The structures appear in SMILES notation. Active and inactive are the calls of the source.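 How the source made its calls: active means GFP ratio vs DMSO below 0.65 in a strain, using the primary screen cutoff set for that strain's protein target; inactive means the rest.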

Holding throughout (assay): TORC1 pathway position of GFP reporter effects – S. cerevisiae, TORC1 bypass vs wild-type strains, mechanism study for yeast TOR pathway modulator project (AID 504479)
Common to all, as to settings: fluorescence ratio vs DMSO, at 10 µM

Assay [1] concerns YBR084C-A.
The test system of assay [2] is YCL025C.
Assay [3] deals with YKL103C.
For assay [4], the system named is YNL142W.
The test system of assay [5] is BY4741.
Assay [6] has as its system YCR005C.
The mark [7] stands for this setting: RPL19A-GFP in TORC1 bypass strain, stronger effect = lower value.
[8] abbreviates: AGP1-GFP in TORC1 bypass strain, stronger effect = higher value.
Setting [9] is: LAP4-GFP in TORC1 bypass strain, stronger effect = higher value.
Setting [10] is: MEP2-GFP in TORC1 bypass strain, stronger effect = higher value.
Where [11] appears, read: CIT2-GFP in TORC1 bypass strain, stronger effect = higher value.

As to `O=[N+]([O-])c1cc(Cl)c2cccnc2c1O`, the GFP ratio vs DMSO was 0.937 in assay [1] (setting [7]); 1.04 (inactive) in assay [1]; 0.738 in assay [2] (setting [8]); 0.999 (inactive) in assay [2]; 1.17 in assay [3] (setting [9]); 1.52 in assay [3]. The GFP ratio vs DMSO in assay [4] (setting [10]) is 0.964; in assay [4], 0.937 (inactive); in assay [5] it was 0.755 (inactive); in assay [6] (setting [11]), 0.67; in assay [6], 0.937 (inactive).
For `CC1=NN(c2ccccc2)C(=O)C1C(c1ccccc1[N+](=O)[O-])C(C#N)C#N` (stereo unspecified), the GFP ratio vs DMSO in assay [1] (setting [7]) is 1.04; in assay [1], 1.09 (inactive); in assay [2] (setting [8]), 0.682; in assay [2], 0.947 (inactive); in assay [3] (setting [9]), 1.44; in assay [3], 2.26. The GFP ratio vs DMSO was 0.948 in assay [4] (setting [10]); 1.03 (inactive) in assay [4]; 0.941 (inactive) in assay [5]; 1.15 in assay [6] (setting [11]); 1.13 (inactive) in assay [6].
Consider `N/C(Cc1ccc(Cl)cc1)=N\OC(=O)c1cccc2ccccc12`, for which the GFP ratio vs DMSO in assay [1] (setting [7]) was 0.818; in assay [1] it was 0.76 (inactive); in assay [2] (setting [8]), 0.679; in assay [2], 0.833 (inactive); in assay [3] (setting [9]), 0.525; in assay [3], 1.24 (inactive). The GFP ratio vs DMSO in assay [4] (setting [10]) is 1.05; in assay [4], 1.23 (inactive); in assay [5], 1.38 (inactive); in assay [6] (setting [11]), 0.748; in assay [6], 2.21.
Consider `O=C(Oc1ccnc2cc(Cl)ccc12)N1CCCCCC1`, for which the GFP ratio vs DMSO in assay [1] (setting [7]) was 0.82; in assay [1], 1.19 (inactive); in assay [2] (setting [8]), 1.12; in assay [2], 1.78; in assay [3] (setting [9]) it was 0.997; in assay [3], 1.15 (inactive). For the same compound, the GFP ratio vs DMSO in assay [4] (setting [10]) was 0.897; in assay [4], 1.96; in assay [5], 1 (inactive); in assay [6] (setting [11]), 0.708; in assay [6], 0.635 (inactive).
Regarding `CC(C)(C)C(=O)NC(=S)NNC(=O)c1ccc(-c2ccccc2)cc1`, the GFP ratio vs DMSO in assay [1] (setting [7]) is 1.2; in assay [1] it was 1.25 (inactive); in assay [2] (setting [8]), 1.03; in assay [2] it was 1.07 (inactive); in assay [3] (setting [9]) it was 1.47; in assay [3], 2.48. Also, the GFP ratio vs DMSO is 1.27 in assay [4] (setting [10]); 1.51 (inactive) in assay [4]; 1.36 (inactive) in assay [5]; 0.935 in assay [6] (setting [11]); 1.37 (inactive) in assay [6].
Regarding `CC(C)(C)n1nc(-c2ccc(Cl)cc2)c2c(N)ncnc21`, the GFP ratio vs DMSO in assay [1] (setting [7]) is 0.612; in assay [1], 0.547; in assay [2] (setting [8]), 0.927; in assay [2], 0.943 (inactive); in assay [3] (setting [9]), 1.2; in assay [3], 1.48 (inactive). Moreover, the GFP ratio vs DMSO in assay [4] (setting [10]) was 0.887; in assay [4] it was 1.04 (inactive); in assay [5], 0.794 (inactive); in assay [6] (setting [11]) it was 0.547; in assay [6] it was 0.359 (inactive).
As for `O=[N+]([O-])c1ccc(O)c2ncccc12`, the GFP ratio vs DMSO was 1.18 in assay [1] (setting [7]); 1.23 (inactive) in assay [1]; 0.99 in assay [2] (setting [8]); 1.14 (inactive) in assay [2]; 1.88 in assay [3] (setting [9]); 3.01 in assay [3]. Moreover, the GFP ratio vs DMSO was 1.06 in assay [4] (setting [10]); 1.21 (inactive) in assay [4]; 1.4 (inactive) in assay [5]; 0.748 in assay [6] (setting [11]); 1.27 (inactive) in assay [6].
Consider `CC(Oc1ccc(Cl)cc1)C(=O)NNC(=S)NC(=O)c1ccco1` (stereo unspecified), for which the GFP ratio vs DMSO in assay [1] (setting [7]) is 1.25; in assay [1] it was 1.15 (inactive); in assay [2] (setting [8]), 0.847; in assay [2], 0.99 (inactive); in assay [3] (setting [9]), 1.7; in assay [3], 2.67. Besides, the GFP ratio vs DMSO in assay [4] (setting [10]) was 1.2; in assay [4], 1.48 (inactive); in assay [5] it was 1.44 (inactive); in assay [6] (setting [11]) it was 0.788; in assay [6] it was 0.971 (inactive).
For the compound `O=[N+]([O-])c1ccc(S(=O)(=O)c2cccc(C(F)(F)F)c2)nc1`, the GFP ratio vs DMSO in assay [1] (setting [7]) is 0.969; in assay [1], 0.902 (inactive); in assay [2] (setting [8]), 0.813; in assay [2] it was 1.04 (inactive); in assay [3] (setting [9]), 1.63; in assay [3], 2.2. Further, the GFP ratio vs DMSO in assay [4] (setting [10]) was 1.04; in assay [4], 1.52 (inactive); in assay [5], 1.03 (inactive); in assay [6] (setting [11]), 0.934; in assay [6] it was 0.976 (inactive).
`O=[N+]([O-])c1cc(O)c2ncccc2c1`: the GFP ratio vs DMSO was 0.993 in assay [1] (setting [7]); 1.01 (inactive) in assay [1]; 0.739 in assay [2] (setting [8]); 0.763 (inactive) in assay [2]; 1.29 in assay [3] (setting [9]); 1.4 (inactive) in assay [3]. Besides, the GFP ratio vs DMSO is 0.918 in assay [4] (setting [10]); 0.698 (inactive) in assay [4]; 1.5 (inactive) in assay [5]; 0.869 in assay [6] (setting [11]); 0.806 (inactive) in assay [6].
As for `CN1CCN(C(c2ccc(C(F)(F)F)cc2)c2ccc3cccnc3c2O)CC1` (stereo unspecified), the GFP ratio vs DMSO is 0.96 in assay [1] (setting [7]); 0.85 (inactive) in assay [1]; 0.842 in assay [2] (setting [8]); 0.994 (inactive) in assay [2]; 1.29 in assay [3] (setting [9]); 1.58 in assay [3]. For the same compound, the GFP ratio vs DMSO was 0.978 in assay [4] (setting [10]); 0.993 (inactive) in assay [4]; 0.792 (inactive) in assay [5]; 0.633 in assay [6] (setting [11]); 0.641 (inactive) in assay [6].
In the case of `Cc1cc(C(=O)Nc2nc(-c3ccccn3)cs2)ccc1[N+](=O)[O-]`, the GFP ratio vs DMSO in assay [1] (setting [7]) is 0.905; in assay [1] it was 0.985 (inactive); in assay [2] (setting [8]), 1.03; in assay [2], 1.05 (inactive); in assay [3] (setting [9]), 0.998; in assay [3], 1.02 (inactive). Also, the GFP ratio vs DMSO in assay [4] (setting [10]) is 1.04; in assay [4], 0.972 (inactive); in assay [5], 0.896 (inactive); in assay [6] (setting [11]), 0.839; in assay [6], 0.907 (inactive).
Turning to `CSC1=NS(=O)(=O)c2c(C)nn(C)c2S1`, the GFP ratio vs DMSO is 0.9 in assay [1] (setting [7]); 0.887 (inactive) in assay [1]; 0.961 in assay [2] (setting [8]); 1.01 (inactive) in assay [2]; 1.06 in assay [3] (setting [9]); 1.36 (inactive) in assay [3]. In addition, the GFP ratio vs DMSO in assay [4] (setting [10]) is 0.862; in assay [4], 0.972 (inactive); in assay [5], 0.833 (inactive); in assay [6] (setting [11]) it was 0.826; in assay [6], 0.78 (inactive).
Turning to `O=S(=O)(CCN(CCS(=O)(=O)C(F)(F)F)CC1CCCO1)C(F)(F)F` (stereo unspecified), the GFP ratio vs DMSO was 1.07 in assay [1] (setting [7]); 1.05 (inactive) in assay [1]; 0.817 in assay [2] (setting [8]); 0.958 (inactive) in assay [2]; 1.2 in assay [3] (setting [9]); 1.85 in assay [3]. Further, the GFP ratio vs DMSO in assay [4] (setting [10]) is 0.942; in assay [4], 0.986 (inactive); in assay [5], 0.958 (inactive); in assay [6] (setting [11]) it was 1.29; in assay [6] it was 1.41 (inactive).
On to `O=C(OCC(=O)N1CCN(C(=O)c2ccco2)CC1)c1cc(-c2cccc(Br)c2)nc2ccccc12`, for which the GFP ratio vs DMSO in assay [1] (setting [7]) was 0.991; in assay [1], 0.79 (inactive); in assay [2] (setting [8]), 1.08; in assay [2] it was 1.2 (inactive); in assay [3] (setting [9]), 0.965; in assay [3], 1.37 (inactive). The GFP ratio vs DMSO was 1.01 in assay [4] (setting [10]); 1.09 (inactive) in assay [4]; 0.833 (inactive) in assay [5]; 0.954 in assay [6] (setting [11]); 1.19 (inactive) in assay [6].
For the compound `O=[N+]([O-])c1cc(S(=O)(=O)C(F)(F)F)ccc1Sc1nc2ccccc2s1`, the GFP ratio vs DMSO in assay [1] (setting [7]) was 0.993; in assay [1] it was 0.985 (inactive); in assay [2] (setting [8]), 0.722; in assay [2], 0.876 (inactive); in assay [3] (setting [9]) it was 1.22; in assay [3] it was 1.71. In addition, the GFP ratio vs DMSO is 0.92 in assay [4] (setting [10]); 0.887 (inactive) in assay [4]; 0.811 (inactive) in assay [5]; 0.848 in assay [6] (setting [11]); 0.985 (inactive) in assay [6].
